Experimental data published in patent publication US6706663B2, “Herbicidal 3-heterocyclic substituted benzisothiazole and benzisoxazole compounds” (Wyeth, priority 2000, dated 2004).

Columns and labels:
[1] = test system: ABUTH (Abutilon theophrasti); test: Postemergence herbicidal evaluation; format: in vivo, Medic.; settings: postemergence
How it was run: (§1)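 Visual 0–9 injury scores versus control plants, covering stand, vigour, malformation, size, chlorosis and general appearance, taken four to five weeks post-spray and averaged over replicate tests. Plants were sprayed at roughly two weeks old and held on greenhouse benches.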

[2] = test system: AMBEL (Ambrosia artemisifolia); test: Postemergence herbicidal evaluation; format: in vivo, L.; settings: postemergence
How it was run: as §1

[3] = test system: CASOB (Cassia obtusifolia); test: Postemergence herbicidal evaluation; format: in vivo, L.; settings: postemergence
How it was run: as §1

[4] = test system: CHEAL (Chenopodium album); test: Postemergence herbicidal evaluation; format: in vivo, L.; settings: postemergence
How it was run: as §1

[5] = test system: GALAP (Galium aparine); test: Postemergence herbicidal evaluation; format: in vivo; settings: postemergence
How it was run: as §1

[6] = test system: IPOHE (Ipomoea hederacea); test: Postemergence herbicidal evaluation; format: in vivo, (L.) Jacq.; settings: postemergence
How it was run: as §1

[7] = test system: ECHCG (Echinochloa crus-galli); test: Postemergence herbicidal evaluation; format: in vivo, (L.) Beau; settings: postemergence
How it was run: as §1

[8] = test system: GLXMAW (Soybean, Williams); test: Postemergence herbicidal evaluation; format: in vivo, Glycine max, (L.) Merr. cv Williams; settings: postemergence
How it was run: as §1

[9] = test system: ORYSAT (Rice, Tebonnet); test: Postemergence herbicidal evaluation; format: in vivo, Oryza sativa, (L.) Tebonnet; settings: postemergence
How it was run: as §1

[10] = test system: TRZAWR (Wheat, Winter, cv Riband); test: Postemergence herbicidal evaluation; format: in vivo, Triticum aestivum; settings: postemergence
How it was run: as §1

[11] = test system: ZEAMX (Corn, Field); test: Postemergence herbicidal evaluation; format: in vivo, Zea mays, L.; settings: postemergence
How it was run: as §1

[12] = test system: ABUTH (Abutilon theophrasti); test: Preemergence herbicidal evaluation; format: in vivo, Medic.; settings: preemergence, rated 4-5 weeks after treatment
[13] = test system: AMBEL (Ambrosia artemisifolia); test: Preemergence herbicidal evaluation; format: in vivo, L.; settings: preemergence, rated 4-5 weeks after treatment
How it was run: (§2)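 Preemergence soil spray, aq. acetone; greenhouse; visual 0–9 score vs control at 4–5 wk.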

[14] = test system: GALAP (Galium aparine); test: Preemergence herbicidal evaluation; format: in vivo; settings: preemergence, rated 4-5 weeks after treatment
How it was run: as §2

[15] = test system: IPOHE (Ipomoea hederacea); test: Preemergence herbicidal evaluation; format: in vivo, (L.) Jacq.; settings: preemergence, rated 4-5 weeks after treatment
[16] = test system: ECHCG (Echinochloa crus-galli); test: Preemergence herbicidal evaluation; format: in vivo, (L.) Beau; settings: preemergence, rated 4-5 weeks after treatment
How it was run: as §2

[17] = test system: GLXMA (Soybean); test: Preemergence herbicidal evaluation; format: in vivo, Glycine max, (L.) Merr.; settings: preemergence, rated 4-5 weeks after treatment
[18] = test system: ZEAMX (Corn, Field); test: Preemergence herbicidal evaluation; format: in vivo, Zea mays, L.; settings: preemergence, rated 4-5 weeks after treatment
[19] = test system: ECHORC (Echinochloa oryzoides); test: Flooded paddy, preemergence weed control; format: in vivo, Echinochloa oryzoides (Ard.) Fritsch.; settings: rated 3-4 weeks after treatment, 0-9 rating scale
How it was run: (§3)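 Silt loam, sowing depth ≤0.5 cm; permanent flood 1.5–3 cm above soil; greenhouse culture after treatment. Readout: 0-9 visual scale (stand, vigor, malformation, size, chlorosis, appearance) vs control.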

[20] = test system: CYPIR (Cyperus iria); test: Flooded paddy, preemergence weed control; format: in vivo; settings: rated 3-4 weeks after treatment, 0-9 rating scale
How it was run: as §3

[21] = test system: MOOVA (Monochoria vaginalis); test: Flooded paddy, preemergence weed control; format: in vivo, Presl.; settings: rated 3-4 weeks after treatment, 0-9 rating scale
How it was run: as §3

[22] = test system: SAGPY (Sagittaria pygmaea); test: Flooded paddy, preemergence weed control; format: in vivo, L.; settings: rated 3-4 weeks after treatment, 0-9 rating scale
How it was run: as §3

[23] = test system: ORYSAT (Rice, Tebonnet); test: Flooded paddy, post-transplant rice tolerance; format: in vivo, Oryza sativa, (L.) Tebonnet; settings: flooded paddy, post-transplant rice, rated 3-4 weeks after treatment, 0-9 rating scale
How it was run: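 Ten-day-old seedlings, 2/pot, silt loam; flood kept 1.5–3 cm over soil; herbicide applied post-transplant; greenhouse; score 0–9 visual vs control.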

Q: For “[2-[5-[3,6-dihydro-3-methyl-2,6-dioxo-4-(trifluoromethyl)-1(2H)-pyrimidinyl]-1,2-benzisothiazol-3-1]-1,3-dioxolan-4-yl]methyl thiocyanate [Compound 89]”, which ABUTH herbicidal rating ([1]; rate 0.0080 kg/ha) is on record?
A: 8.0

Q: And the ABUTH herbicidal rating ([1]; rate 0.0320 kg/ha)?
A: 9.0

Q: What about the ABUTH herbicidal rating ([1]; rate 0.0620 kg/ha) of the same substance?
A: 9.0

Q: And the ABUTH herbicidal rating ([1]; rate 0.1250 kg/ha)?
A: 9.0

Q: And the AMBEL herbicidal rating ([2]; rate 0.0080 kg/ha)?
A: 7.0

Q: And the AMBEL herbicidal rating ([2]; rate 0.0320 kg/ha)?
A: 9.0

Q: And the AMBEL herbicidal rating ([2]; rate 0.0620 kg/ha)?
A: 9.0

Q: What about the AMBEL herbicidal rating ([2]; rate 0.1250 kg/ha) of the same substance?
A: 9.0

Q: What about the CASOB herbicidal rating ([3]; rate 0.0080 kg/ha) of the same substance?
A: 9.0

Q: And the CASOB herbicidal rating ([3]; rate 0.0320 kg/ha)?
A: 9.0

Q: What about the CASOB herbicidal rating ([3]; rate 0.0620 kg/ha) of the same substance?
A: 9.0

Q: What about the CASOB herbicidal rating ([3]; rate 0.1250 kg/ha) of the same substance?
A: 9.0

Q: What about the CHEAL herbicidal rating ([4]; rate 0.0080 kg/ha) of the same substance?
A: 8.0

Q: What about the CHEAL herbicidal rating ([4]; rate 0.0320 kg/ha) of the same substance?
A: 9.0

Q: What about the CHEAL herbicidal rating ([4]; rate 0.0620 kg/ha) of the same substance?
A: 9.0

Q: What about the CHEAL herbicidal rating ([4]; rate 0.1250 kg/ha) of the same substance?
A: 9.0

Q: What about the GALAP herbicidal rating ([5]; rate 0.0080 kg/ha) of the same substance?
A: 2.0

Q: What about the GALAP herbicidal rating ([5]; rate 0.0320 kg/ha) of the same substance?
A: 3.0

Q: What about the GALAP herbicidal rating ([5]; rate 0.0620 kg/ha) of the same substance?
A: 7.0

Q: What about the GALAP herbicidal rating ([5]; rate 0.1250 kg/ha) of the same substance?
A: 9.0

Q: And the IPOHE herbicidal rating ([6]; rate 0.0080 kg/ha)?
A: 7.0

Q: And the IPOHE herbicidal rating ([6]; rate 0.0320 kg/ha)?
A: 9.0

Q: What about the IPOHE herbicidal rating ([6]; rate 0.0620 kg/ha) of the same substance?
A: 9.0

Q: And the IPOHE herbicidal rating ([6]; rate 0.1250 kg/ha)?
A: 9.0

Q: And the ECHCG herbicidal rating ([7]; rate 0.0080 kg/ha)?
A: 0.0

Q: And the ECHCG herbicidal rating ([7]; rate 0.0320 kg/ha)?
A: 0.0

Q: What about the ECHCG herbicidal rating ([7]; rate 0.0620 kg/ha) of the same substance?
A: 3.0

Q: And the ECHCG herbicidal rating ([7]; rate 0.1250 kg/ha)?
A: 4.0

Q: What about the GLXMAW herbicidal rating ([8]; rate 0.0080 kg/ha) of the same substance?
A: 7.0

Q: What about the GLXMAW herbicidal rating ([8]; rate 0.0320 kg/ha) of the same substance?
A: 7.5

Q: And the GLXMAW herbicidal rating ([8]; rate 0.0620 kg/ha)?
A: 8.0

Q: What about the GLXMAW herbicidal rating ([8]; rate 0.1250 kg/ha) of the same substance?
A: 9.0

Q: What about the ORYSAT herbicidal rating ([9]; rate 0.0080 kg/ha) of the same substance?
A: 1.5

Q: And the ORYSAT herbicidal rating ([9]; rate 0.0320 kg/ha)?
A: 3.0

Q: And the ORYSAT herbicidal rating ([9]; rate 0.0620 kg/ha)?
A: 3.0

Q: What about the ORYSAT herbicidal rating ([9]; rate 0.1250 kg/ha) of the same substance?
A: 4.0

Q: And the TRZAWR herbicidal rating ([10]; rate 0.0080 kg/ha)?
A: 1.5

Q: And the TRZAWR herbicidal rating ([10]; rate 0.0320 kg/ha)?
A: 3.0

Q: And the TRZAWR herbicidal rating ([10]; rate 0.0620 kg/ha)?
A: 3.0

Q: What about the TRZAWR herbicidal rating ([10]; rate 0.1250 kg/ha) of the same substance?
A: 4.0

Q: And the ZEAMX herbicidal rating ([11]; rate 0.0080 kg/ha)?
A: 3.0

Q: What about the ZEAMX herbicidal rating ([11]; rate 0.0320 kg/ha) of the same substance?
A: 3.5

Q: And the ZEAMX herbicidal rating ([11]; rate 0.0620 kg/ha)?
A: 3.5

Q: What about the ZEAMX herbicidal rating ([11]; rate 0.1250 kg/ha) of the same substance?
A: 3.5

Q: What about the “Preemergence herbicidal rating ABUTH” value ([12]; rate 0.0620 kg/ha) of the same substance?
A: 9.0

Q: What about the “Preemergence herbicidal rating ABUTH” value ([12]; rate 0.1250 kg/ha) of the same substance?
A: 9.0

Q: What about the “Preemergence herbicidal rating ABUTH” value ([12]; rate 0.2500 kg/ha) of the same substance?
A: 9.0

Q: What about the “Preemergence herbicidal rating AMBEL” value ([13]; rate 0.0620 kg/ha) of the same substance?
A: 4.0

Q: What about the “Preemergence herbicidal rating AMBEL” value ([13]; rate 0.1250 kg/ha) of the same substance?
A: 9.0

Q: And the “Preemergence herbicidal rating AMBEL” value ([13]; rate 0.2500 kg/ha)?
A: 9.0

Q: And the “Preemergence herbicidal rating GALAP” value ([14]; rate 0.0620 kg/ha)?
A: 3.0

Q: And the “Preemergence herbicidal rating GALAP” value ([14]; rate 0.1250 kg/ha)?
A: 6.0

Q: And the “Preemergence herbicidal rating GALAP” value ([14]; rate 0.2500 kg/ha)?
A: 7.0

Q: And the “Preemergence herbicidal rating IPOHE” value ([15]; rate 0.0620 kg/ha)?
A: 7.0

Q: And the “Preemergence herbicidal rating IPOHE” value ([15]; rate 0.1250 kg/ha)?
A: 8.0

Q: What about the “Preemergence herbicidal rating IPOHE” value ([15]; rate 0.2500 kg/ha) of the same substance?
A: 9.0

Q: What about the “Preemergence herbicidal rating ECHCG” value ([16]; rate 0.0620 kg/ha) of the same substance?
A: 0.0

Q: What about the “Preemergence herbicidal rating ECHCG” value ([16]; rate 0.1250 kg/ha) of the same substance?
A: 3.0

Q: And the “Preemergence herbicidal rating ECHCG” value ([16]; rate 0.2500 kg/ha)?
A: 7.0

Q: What about the “Preemergence herbicidal rating GLXMA” value ([17]; rate 0.0620 kg/ha) of the same substance?
A: 3.0

Q: And the “Preemergence herbicidal rating GLXMA” value ([17]; rate 0.1250 kg/ha)?
A: 6.0

Q: What about the “Preemergence herbicidal rating GLXMA” value ([17]; rate 0.2500 kg/ha) of the same substance?
A: 9.0

Q: What about the “Preemergence herbicidal rating ZEAMX” value ([18]; rate 0.0620 kg/ha) of the same substance?
A: 0.0

Q: And the “Preemergence herbicidal rating ZEAMX” value ([18]; rate 0.1250 kg/ha)?
A: 3.0

Q: What about the “Preemergence herbicidal rating ZEAMX” value ([18]; rate 0.2500 kg/ha) of the same substance?
A: 4.0

Q: And the ECHORC herbicidal rating ([19]; rate 0.0320 kg/ha)?
A: 3.0

Q: And the ECHORC herbicidal rating ([19]; rate 0.1250 kg/ha)?
A: 5.0

Q: What about the CYPIR herbicidal rating ([20]; rate 0.0320 kg/ha) of the same substance?
A: 0.0

Q: What about the CYPIR herbicidal rating ([20]; rate 0.1250 kg/ha) of the same substance?
A: 8.0

Q: What about the MOOVA herbicidal rating ([21]; rate 0.0320 kg/ha) of the same substance?
A: 0.0

Q: What about the MOOVA herbicidal rating ([21]; rate 0.1250 kg/ha) of the same substance?
A: 8.0

Q: What about the SAGPY herbicidal rating ([22]; rate 0.0320 kg/ha) of the same substance?
A: 0.0

Q: What about the SAGPY herbicidal rating ([22]; rate 0.1250 kg/ha) of the same substance?
A: 9.0

Q: What about the “ORYSAT herbicidal rating (transplanted rice tolerance)” value ([23]; rate 0.0320 kg/ha) of the same substance?
A: 0.0

Q: What about the “ORYSAT herbicidal rating (transplanted rice tolerance)” value ([23]; rate 0.1250 kg/ha) of the same substance?
A: 6.0
